According to patent US12441691B2 (Cytokinetics, Inc., priority 2020, dated 2025):
In brackets after ≈: the same amount, converted by molar mass.

What was measured:
Format in all cases: physicochemical
[1] = Thermodynamic aqueous solubility (FaSSIF)
Experimental: Aqueous solubility was determined by suspending sufficient compound in relevant media to give a maximum final concentration of >10 mg/ml of the parent free-form of the compound. The suspension was equilibrated at 37° C., on a Heidolph plate shaker set to 750 rpm for 24 hours. The pH of the saturated solution was then measured, and the suspension filtered through a glass fibre C filter (particle retention 1.2 μm) and diluted appropriately. Quantitation was by HPLC with reference to a standard solution of approximately 0.15 mg/ml in DMSO. Different volumes of the standard, diluted and undiluted sample solutions were injected. The solubility was calculated using the peak areas determined by integration of the peak found at the same retention time as the principal peak in the standard injection.

[2] = Gravimetric vapour sorption (GVS); settings: for GVS mass change / GVS water uptake, mol equivalents of water: between 0 and 90% RH, 25° C.; for XRPD after GVS analysis: form after GVS measurement; for Hygroscopicity by GVS: 0-90% RH
Experimental: Sorption isotherms were obtained using a SMS DVS Intrinsic moisture sorption analyser, controlled by DVS Intrinsic Control software. The sample temperature was maintained at 25° C. by the instrument controls. The humidity was controlled by mixing streams of dry and wet nitrogen, with a total flow rate of 200 ml/min. The relative humidity was measured by a calibrated Rotronic probe (dynamic range of 1.0-100% RH), located near the sample. The weight change, (mass relaxation) of the sample as a function of % RH was constantly monitored by a microbalance (accuracy ±0.005 mg).
Typically, 5-30 mg of sample was placed in a tared mesh stainless steel basket under ambient conditions. The sample was loaded and unloaded at 40% RH and 25° C. (typical room conditions). A moisture sorption isotherm was performed as outlined below (2 scans per complete cycle). The standard isotherm was performed at 25° C. at 10% RH intervals over a 0-90% RH range. Typically, a double cycle (4 scans) was carried out. Data analysis was carried out within Microsoft Excel using the DVS Analysis Suite.
The sample was recovered after completion of the isotherm and re-analysed by XRPD.

[3] = Water determination by Karl Fischer titration (KF)
Experimental: The water content of each sample was measured on a Metrohm 874 Oven Sample Processor at 150° C. with 851 Titrano Coulometer using Hydranal Coulomat AG oven reagent and nitrogen purge. Weighed solid samples were introduced into a sealed sample vial. Approximately 10 mg of sample was used per titration and duplicate determinations were made. […] Data collection and analysis were performed using Tiamo software.

[4] = Static storage stability of crystalline form by XRPD
[5] = 40° C./75% RH, 7 days (one week)

| XRPD of solid residues ([1]; solid residues after thermodynamic solubility in FaSSIF (37° C.)) | solubility thermodynamic at 24 h ([1]; thermodynamic from solid, FaSSIF, 37° C., equilibrated 24 hours) | GVS mass change [2] | GVS water uptake, mol equivalents of water [2] | XRPD after GVS analysis [2] | KF water content [3] | Hygroscopicity by GVS [2] | Static storage, XRPD [4, 5] | Static storage, XRPD ([4]; 25° C./97% RH (one week for Form I)) | SMILES |
| --- | --- | --- | --- | --- | --- | --- | --- | --- | --- |
| Form I | 460 µg/mL (≈ 1640 µM) | 0.29% Mass change between 0 and 90% RH. | 0.04 mol. equivalents water | Unchanged | 0.1% water | – | – | – | CC[C@H](C)[C@H]1C(=O)Nc2cncc(F)c2CN1C(N)=O [Crystalline Form I, (S)-3-((S)-sec-Butyl)-6-fluoro-2-oxo-1,2,3,5-tetrahydro-4H-pyrido[3,4-e][1,4]diazepine-4-carboxamide] |
| – | – | 0.23% | – | unchanged | – | slightly hygroscopic | no changes | – | CC[C@H](C)[C@H]1C(=O)Nc2cncc(F)c2CN1C(N)=O [Form II] |
| – | – | 0.29% | 0.04 mol. equivalents water | unchanged | 0.1% | slightly hygroscopic | unchanged | unchanged | CC[C@H](C)[C@H]1C(=O)Nc2cncc(F)c2CN1C(N)=O [Form I] |
